Results taken from patent publication US20200017496A1 (priority 2017, published 2020).
Read-outs that look alike come from different tables or passages of the source.

Experiments:
[1] = Mouse oral bioavailability determination, CEFIXIME/Example 3 combination (Method 4); set-up: species or system Swiss Mouse; conditions: male, Swiss; Mouse; intravenous 30 mg/kg; AF1 titrated in plasma; read-out: AUC0-∞
Description: Water and food were available ad libitum throughout the study. Mouse were handled in accordance with the institutional and national guidelines for the care and use of laboratory animals. […] Drugs were administered by oral gavage using feeding needle. […] Plasma samples were stored at -80° C. until bioanalysis. […] Plasma samples bioanalysis and data analysis The plasma samples (20 μl) were thawed at 0° C. […] Standard samples were prepared by spiking the blank plasma into concentrations 10-5 000 ng/ml and otherwise treated as the samples. […] Mass spectrometric detection involved electrospray ionization in the negative mode followed by multiple reaction monitoring of the drugs and internal standard transitions. Actual drug concentrations were deduced from interpolation of the standard curve. The pharmacokinetic parameters were calculated using XLfit (IDBS) and Excel (Microsoft) software, using standard non-compartmental methods. The intraduodenal bioavailability was calculated by dividing the AUC obtained from the intraduodenal administration by the AUC obtained from the intravenous administration.

OXA-48 = molecular target: T1, OXA-48 (Klebsiella pneumoniae, UniProt Q6XEC0); test: biochemical
T1 construct: made in house; host or cells: E. coli
T1 sequence (Q6XEC0 23-265 limits assumed): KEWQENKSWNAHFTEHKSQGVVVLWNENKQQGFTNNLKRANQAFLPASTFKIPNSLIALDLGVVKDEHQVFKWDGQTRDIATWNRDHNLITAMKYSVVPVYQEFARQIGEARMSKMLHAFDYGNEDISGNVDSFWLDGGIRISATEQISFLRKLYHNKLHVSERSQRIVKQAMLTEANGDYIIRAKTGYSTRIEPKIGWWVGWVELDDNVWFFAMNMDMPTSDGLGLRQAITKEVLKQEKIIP

SHV-1 = molecular target: T2, SHV-1 (Klebsiella pneumoniae, UniProt P0AD64); test: biochemical
T2 construct: made in house; host or cells: E. coli
T2 sequence (P0AD64 22-286): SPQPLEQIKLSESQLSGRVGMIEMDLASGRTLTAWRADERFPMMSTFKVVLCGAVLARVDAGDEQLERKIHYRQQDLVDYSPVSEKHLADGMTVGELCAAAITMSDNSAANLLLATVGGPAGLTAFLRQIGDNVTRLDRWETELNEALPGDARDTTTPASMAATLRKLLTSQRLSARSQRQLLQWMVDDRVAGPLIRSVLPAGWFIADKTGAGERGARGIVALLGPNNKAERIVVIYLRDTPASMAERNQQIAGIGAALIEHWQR

OXA-51 = OXA-51 (Acinetobacter baumannii, UniProt Q5QT35)
Sequence of OXA-51 (Q5QT35 26-274): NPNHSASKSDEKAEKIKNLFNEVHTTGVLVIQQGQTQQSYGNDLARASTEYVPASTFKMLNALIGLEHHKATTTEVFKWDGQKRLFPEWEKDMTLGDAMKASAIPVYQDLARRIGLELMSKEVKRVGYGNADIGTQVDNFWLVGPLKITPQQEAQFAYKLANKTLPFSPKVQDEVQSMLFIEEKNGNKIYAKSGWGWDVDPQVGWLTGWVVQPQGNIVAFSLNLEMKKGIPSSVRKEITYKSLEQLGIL
Description: (§1) Method 1: β-Lactamase Inhibitory Activity, Determination of IC50 (Table 1)
(§2) Enzymes were cloned in E. coli expression vector, expressed and purified in house using classical procedures. […] After 30 min of pre-incubation at room temperature, 155 μL of NCF (100 μM final) were finally added in each well. […] Enzyme activity was obtained by subtracting the background from the final signal, and was converted to enzyme inhibition using non inhibited wells. IC50 curves were fitted to a classical Langmuir equilibrium model with Hill slope using XLFIT (IDBS).

SHV-12 = molecular target: T3, SHV-12 (Klebsiella pneumoniae, UniProt P0AD64, E235K/G234S/L31Q); test: β-lactamase inhibitory activity, IC50 (nitrocefin hydrolysis); format: biochemical
T3 construct: made in house; host or cells: E. coli
T3 sequence (P0AD64 22-286 L31Q/G234S/E235K): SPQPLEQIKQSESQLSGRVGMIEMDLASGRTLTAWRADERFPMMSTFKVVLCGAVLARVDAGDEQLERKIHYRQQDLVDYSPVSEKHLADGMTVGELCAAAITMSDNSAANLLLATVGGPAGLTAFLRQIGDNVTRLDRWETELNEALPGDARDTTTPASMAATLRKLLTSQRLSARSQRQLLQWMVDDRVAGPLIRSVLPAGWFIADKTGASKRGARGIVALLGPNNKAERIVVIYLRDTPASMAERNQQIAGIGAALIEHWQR

TEM-1 = molecular target: T4, TEM-1 (Escherichia coli, UniProt P62593); test: as above; format: biochemical
T4 construct: made in house; host or cells: E. coli
T4 sequence (P62593 24-286 limits assumed): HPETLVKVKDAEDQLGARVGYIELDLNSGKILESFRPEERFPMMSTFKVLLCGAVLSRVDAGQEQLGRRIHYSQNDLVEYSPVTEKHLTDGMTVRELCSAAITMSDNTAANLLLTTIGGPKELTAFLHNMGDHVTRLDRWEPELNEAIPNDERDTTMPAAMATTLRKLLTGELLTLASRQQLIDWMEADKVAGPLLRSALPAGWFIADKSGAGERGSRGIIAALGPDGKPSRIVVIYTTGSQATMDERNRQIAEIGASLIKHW

SAU PC1 = SAU PC1 (Staphylococcus aureus, UniProt P00807); test: biochemical
Sequence of SAU PC1 (P00807 25-281): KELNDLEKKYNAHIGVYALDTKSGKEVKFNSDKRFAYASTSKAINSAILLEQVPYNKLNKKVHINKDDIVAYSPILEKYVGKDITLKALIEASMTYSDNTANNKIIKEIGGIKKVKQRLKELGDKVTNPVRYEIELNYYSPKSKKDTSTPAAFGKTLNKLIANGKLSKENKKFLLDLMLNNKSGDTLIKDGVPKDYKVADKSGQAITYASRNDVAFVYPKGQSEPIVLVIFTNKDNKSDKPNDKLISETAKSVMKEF
Description: as §1, §2

OXA-40 = molecular target: T5, OXA-40 (Acinetobacter baumannii, UniProt Q8RLA6); test: biochemical
T5 construct: made in house; host or cells: E. coli
T5 sequence (Q8RLA6 entry or part of it): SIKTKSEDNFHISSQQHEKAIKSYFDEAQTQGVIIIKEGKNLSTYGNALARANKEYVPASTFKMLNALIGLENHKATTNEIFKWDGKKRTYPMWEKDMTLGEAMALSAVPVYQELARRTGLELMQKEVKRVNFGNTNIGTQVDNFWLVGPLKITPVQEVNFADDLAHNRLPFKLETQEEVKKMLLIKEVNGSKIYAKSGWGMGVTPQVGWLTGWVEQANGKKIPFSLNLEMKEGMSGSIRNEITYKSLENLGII
Description: as §1, §2

P99 ampC = molecular target: T6, P99 ampC (Enterobacter cloacae, UniProt P05364); test: biochemical
T6 construct: made in house; host or cells: E. coli
T6 sequence (P05364 21-381): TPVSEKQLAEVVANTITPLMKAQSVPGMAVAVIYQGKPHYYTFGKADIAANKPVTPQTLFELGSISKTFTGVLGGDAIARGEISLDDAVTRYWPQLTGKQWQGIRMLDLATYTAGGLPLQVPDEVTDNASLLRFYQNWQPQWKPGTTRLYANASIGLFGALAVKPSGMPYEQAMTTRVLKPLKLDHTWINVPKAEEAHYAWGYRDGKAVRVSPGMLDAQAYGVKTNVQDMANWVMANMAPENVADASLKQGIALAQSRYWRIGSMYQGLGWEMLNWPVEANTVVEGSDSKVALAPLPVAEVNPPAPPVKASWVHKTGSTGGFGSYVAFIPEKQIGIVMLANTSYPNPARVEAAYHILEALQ
Description: as §1, §2

PAE ampC = PAE ampC (Pseudomonas aeruginosa, UniProt P24735); test: biochemical
Sequence of PAE ampC (P24735 27-397): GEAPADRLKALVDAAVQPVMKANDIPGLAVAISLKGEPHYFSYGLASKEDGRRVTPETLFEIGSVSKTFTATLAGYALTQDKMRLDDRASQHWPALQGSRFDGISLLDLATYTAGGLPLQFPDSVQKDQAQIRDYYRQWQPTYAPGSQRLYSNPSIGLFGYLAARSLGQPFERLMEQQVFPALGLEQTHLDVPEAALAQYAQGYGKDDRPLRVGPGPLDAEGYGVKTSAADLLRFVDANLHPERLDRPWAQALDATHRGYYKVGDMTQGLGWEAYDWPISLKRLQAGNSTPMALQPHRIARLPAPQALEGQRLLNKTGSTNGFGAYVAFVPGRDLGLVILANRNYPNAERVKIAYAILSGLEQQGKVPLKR
Description: as §1, §2

[2] = Rat intraduodenal bioavailability determination (Method 3); format: in vivo, Sprague-Dawley (SD) rats; conditions: male, Sprague-Dawley, AF1 titrated in plasma
CTX-M-15 = molecular target: T7, CTX-M-15 (Escherichia coli, UniProt Q9EXV5); test: biochemical
T7 construct: made in house; host or cells: E. coli
T7 sequence (Q9EXV5 entry or part of it): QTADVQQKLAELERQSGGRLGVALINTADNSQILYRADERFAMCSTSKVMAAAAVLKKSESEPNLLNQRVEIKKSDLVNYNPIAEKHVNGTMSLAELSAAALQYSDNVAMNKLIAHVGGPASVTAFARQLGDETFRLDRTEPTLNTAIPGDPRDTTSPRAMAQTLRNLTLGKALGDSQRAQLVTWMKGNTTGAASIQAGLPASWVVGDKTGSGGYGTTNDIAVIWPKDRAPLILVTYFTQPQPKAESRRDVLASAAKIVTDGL

OXA-11 = molecular target: T8, OXA-11 (Pseudomonas aeruginosa, UniProt Q06778); test: β-lactamase inhibitory activity, IC50 (nitrocefin hydrolysis); format: biochemical
T8 construct: made in house; host or cells: E. coli
T8 sequence (Q06778 21-266): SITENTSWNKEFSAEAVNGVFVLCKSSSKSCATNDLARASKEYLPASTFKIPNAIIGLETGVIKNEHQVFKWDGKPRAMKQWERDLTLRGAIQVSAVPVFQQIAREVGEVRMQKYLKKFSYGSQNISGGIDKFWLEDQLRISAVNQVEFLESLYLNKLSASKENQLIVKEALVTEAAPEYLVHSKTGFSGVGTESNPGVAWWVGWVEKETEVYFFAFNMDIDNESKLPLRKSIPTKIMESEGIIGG
Description: as §1, §2

OXA-58 = molecular target: T9, OXA-58 (Acinetobacter baumannii, UniProt Q2TR58); test: as above; format: biochemical
T9 construct: made in house; host or cells: E. coli
T9 sequence (Q2TR58 19-280, species assumed): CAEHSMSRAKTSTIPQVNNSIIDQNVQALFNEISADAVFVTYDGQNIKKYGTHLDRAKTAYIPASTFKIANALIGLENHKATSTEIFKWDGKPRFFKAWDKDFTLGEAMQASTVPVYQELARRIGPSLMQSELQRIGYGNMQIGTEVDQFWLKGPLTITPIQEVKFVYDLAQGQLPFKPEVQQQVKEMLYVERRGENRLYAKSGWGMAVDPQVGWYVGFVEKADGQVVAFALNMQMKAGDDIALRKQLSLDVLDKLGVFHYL
Description: as §1, §2

[3] = molecular target: CMY-37 (Citrobacter freundii); test: as above; format: biochemical
Sequence of CMY-37 (Citrobacter freundii) (A0A9R8 21-381): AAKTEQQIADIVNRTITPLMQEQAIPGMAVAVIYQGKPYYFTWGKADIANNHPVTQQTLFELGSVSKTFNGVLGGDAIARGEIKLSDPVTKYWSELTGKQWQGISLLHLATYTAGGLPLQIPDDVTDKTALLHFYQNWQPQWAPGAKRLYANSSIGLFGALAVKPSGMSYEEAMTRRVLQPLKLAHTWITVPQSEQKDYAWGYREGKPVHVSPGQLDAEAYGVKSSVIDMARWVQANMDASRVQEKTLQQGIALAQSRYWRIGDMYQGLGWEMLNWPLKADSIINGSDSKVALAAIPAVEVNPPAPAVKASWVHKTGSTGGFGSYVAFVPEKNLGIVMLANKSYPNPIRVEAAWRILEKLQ
Description: as §1, §2

OXA-1 = molecular target: T10, OXA-1 (Escherichia coli, UniProt P13661); test: biochemical
T10 construct: made in house; host or cells: E. coli
T10 sequence (P13661 26-276): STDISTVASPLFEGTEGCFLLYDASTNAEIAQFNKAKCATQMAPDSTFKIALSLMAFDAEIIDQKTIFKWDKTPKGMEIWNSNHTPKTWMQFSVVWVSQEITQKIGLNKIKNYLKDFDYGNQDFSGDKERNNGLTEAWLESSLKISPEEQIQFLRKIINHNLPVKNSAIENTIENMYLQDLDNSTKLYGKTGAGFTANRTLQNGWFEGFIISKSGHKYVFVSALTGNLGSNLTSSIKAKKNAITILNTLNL

KPC-2 = molecular target: T11, KPC-2 (Klebsiella pneumoniae, UniProt Q9F663); test: biochemical
T11 construct: made in house; host or cells: E. coli
T11 sequence (Q9F663 25-293 limits assumed): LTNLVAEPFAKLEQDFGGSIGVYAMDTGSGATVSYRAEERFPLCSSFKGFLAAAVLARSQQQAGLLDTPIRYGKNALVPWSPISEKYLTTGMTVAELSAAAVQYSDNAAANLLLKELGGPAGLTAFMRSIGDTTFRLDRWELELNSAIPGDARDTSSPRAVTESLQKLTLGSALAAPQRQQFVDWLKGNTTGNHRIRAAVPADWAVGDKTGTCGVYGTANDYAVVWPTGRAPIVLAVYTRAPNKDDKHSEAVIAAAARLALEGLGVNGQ

OXA-23 = molecular target: T12, OXA-23 (Acinetobacter baumannii, UniProt Q9L4P2); test: biochemical
T12 construct: made in house; host or cells: E. coli
T12 sequence (Q9L4P2 18-273): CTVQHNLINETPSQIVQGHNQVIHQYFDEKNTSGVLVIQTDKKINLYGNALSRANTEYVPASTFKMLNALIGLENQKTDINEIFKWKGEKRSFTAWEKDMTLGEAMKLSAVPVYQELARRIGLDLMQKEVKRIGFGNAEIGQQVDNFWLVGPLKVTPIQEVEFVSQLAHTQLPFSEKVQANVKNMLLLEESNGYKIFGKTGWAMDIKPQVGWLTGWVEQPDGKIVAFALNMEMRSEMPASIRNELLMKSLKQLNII

OXA-15 = molecular target: T13, OXA-15 (Pseudomonas aeruginosa, UniProt Q51574); test: biochemical
T13 construct: made in house; host or cells: E. coli
T13 sequence (Q51574 22-275): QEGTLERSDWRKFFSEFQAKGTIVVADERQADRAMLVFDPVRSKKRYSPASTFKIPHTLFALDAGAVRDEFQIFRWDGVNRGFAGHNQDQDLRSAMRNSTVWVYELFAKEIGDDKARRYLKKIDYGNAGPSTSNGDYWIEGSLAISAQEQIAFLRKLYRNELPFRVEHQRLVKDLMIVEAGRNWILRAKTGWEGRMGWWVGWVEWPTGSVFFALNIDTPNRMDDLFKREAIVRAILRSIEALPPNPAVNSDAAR

[4] = test system: Providencia stuartii (PST) isolates; test: MIC of compounds alone and combined with antibacterials, broth microdilution (CLSI); format: cell-based; conditions: Providencia stuartii
Description: (§3) Method 2: MIC of Compounds Alone and Combined with Antibacterials Against Bacterial Isolates.
(§4) Compounds of the present invention were assessed against genotyped bacterial strains (Table 3, 4) alone or in combination with an antibacterial (Table 2). […] Log phase bacterial suspensions were adjusted to a final density of 5·10^5 CFU/mL in cation-adjusted Mueller-Hinton broth (ca-MHB; Becton-Dickinson and Company) and added to each well (98 μL). Microplates were incubated for 16-20 h at 35° C. in ambient air. The MIC of the compounds was defined as the lowest concentration of said compounds that prevented bacterial growth as read by visual inspection. The MIC of ATB at each compound concentration was defined as the lowest concentration of ATB that prevented bacterial growth as read by visual inspection.

[5] = test system: Enterobacter aerogenes (EAE) isolates; test: as above; format: cell-based; conditions: Klebsiella aerogenes
Description: as §3, §4

[6] = test system: Escherichia coli (ECO) isolates; test: as above; format: cell-based; conditions: Escherichia coli, alone
Description: as §3, §4

[7] = test system: Serratia marcescens (SMA) isolates; test: as above; format: cell-based; conditions: Serratia marcescens
Description: as §3, §4

[8] = test system: Citrobacter freundii (CFR) isolates; test: as above; format: cell-based; conditions: Citrobacter freundii
Description: as §3, §4

[9] = test system: Klebsiella pneumoniae (KPN) isolates; test: as above; format: cell-based
Description: as §3, §4

[10] = test system: Proteus mirabilis (PMI) isolates; test: microbe, parasite or virus in culture; format: cell-based
Description: as §3, §4

NC(=O)[C@@H]1CC[C@@H]2CN1C(=O)N2OC(F)(F)C(=O)[O-].[Na+] [AF1]
AUC(0-inf) [1]: 11200 ng·h/mL
IC50 (OXA-48): 75 nM
IC50 (SHV-1): 0.12 nM
IC50 (OXA-51): 1700 nM
IC50 (SHV-12): 1.1 nM
IC50 (TEM-1; TEM-1, 30 min pre-incubation, nitrocefin 100 μM, read-out: IC50): 0.22 nM
IC50 (SAU PC1): 71 nM
IC50 (OXA-40): 2100 nM
IC50 (P99 ampC): 550 nM
IC50 (PAE ampC): 660 nM
AUC(0-inf) ([2]; intravenous 10 mg/kg): 4130 ng·h/mL
AUC(0-inf) ([2]; intravenous 20 mg/kg, Phosphate pH 7.4, solution): 12500 ng·h/mL
IC50 (CTX-M-15): 0.21 nM
IC50 (OXA-11): 1000 nM
IC50 (OXA-58): 400 nM
IC50 [3]: 740 nM
IC50 (OXA-1): 1100 nM
IC50 (KPC-2): 40 nM
IC50 (OXA-23): 1700 nM
IC50 (OXA-15): 71 nM

N#C[C@@H]1CC[C@@H]2CN1C(=O)N2OC(F)(F)C(=O)[O-].[Na+] [AF2, sodium 2-[[(2S,5R)-2-cyano-7-oxo-1,6-diazabicyclo[3.2.1]octan-6-yl]oxy]-2,2-difluoro-acetate]
MIC [4]: > 32 µg/mL
MIC [5]: > 32 µg/mL
MIC ([6]; ECO 190317): > 32 µg/mL
MIC ([6]; ECO 190457): 16 µg/mL
MIC ([6]; ECO UFR16): > 32 µg/mL
MIC ([6]; ECO UFR20): > 32 µg/mL
MIC ([6]; ECO UFR61O): > 32 µg/mL
MIC ([6]; ECO UFR209): 32 µg/mL
MIC [7]: > 32 µg/mL
MIC [8]: > 32 µg/mL
MIC ([9]; KPN 131119, alone): >32 µg/mL
MIC ([9]; KPN 190270, alone): >32 µg/mL
MIC ([9]; KPN UFR25, alone): >32 µg/mL
MIC ([9]; KPN UFR66, alone): >32 µg/mL
MIC ([9]; KPN UFR68, alone): >32 µg/mL
MIC ([9]; Klebsiella pneumoniae): > 32 µg/mL
MIC ([10]; PMI UFR127, alone): >32 µg/mL
MIC ([10]; Proteus mirabilis): > 32 µg/mL
IC50 (OXA-48): 0.7 nM
IC50 (SHV-1): 1.4 nM
IC50 (OXA-51; OXA-51, 30 min pre-incubation, nitrocefin 100 μM): 51 nM
IC50 (SHV-12): 1.1 nM
IC50 (TEM-1): 0.96 nM
IC50 (SAU PC1): 3.1 nM
IC50 (OXA-40): 12 nM
IC50 (P99 ampC): 54 nM
IC50 (PAE ampC): 140 nM
IC50 (CTX-M-15): 0.16 nM
IC50 (OXA-11): 13 nM
IC50 (OXA-58): 2.1 nM
IC50 [3]: 70 nM
IC50 (OXA-1): 11 nM
IC50 (KPC-2): 12 nM
IC50 (OXA-23): 11 nM
IC50 (OXA-15): 4 nM
